Drawing on ChEMBL document CHEMBL2163201, “Discovery of novel pyrrolopyridazine scaffolds as transient receptor potential vanilloid (TRPV1) antagonists” (Bioorg Med Chem Lett, 2012), this text covers Papp A→B and solubility for 26 compounds.

The structures appear in SMILES notation. In brackets after ≈: the same amount, converted by molar mass.

Data set [1] can be described thus: Apparent permeability across apical to basolateral side of human Caco2 cells. The class given is ADME, cell-based. As to conditions: Caco-2. Background: Caco-2 cells form a polarised layer with tight junctions and transporters.
Data set [2] can be described thus: Equilibrium solubility of the compound in DMSO preincubated for 4 hrs. The format is physicochemical.

The Papp A→B is the apparent permeability from the apical to the basolateral side of a cell layer. Broadly, the solubility is how much of the substance goes into solution per volume. Lower therefore signals a poorly soluble substance. For the compound `CCN(CCO)C(=O)c1cc2ccccn2c1-c1cccc(OC)n1`, the Papp A→B in data set [1] was 56 ×10⁻⁶ cm/s. The concentration in solution in data set [2] (solubility at 4 h) was 190 µM (≈ 64.5 µg/mL). With `CCN(CCO)C(=O)c1cc2c(C)ccnn2c1-c1cccc(C(F)(F)F)c1`, in data set [2], the solubility at 4 h worked out at 32 µM (≈ 12.5 µg/mL). On the same count and under the same terms, in the case of `CCN(CCO)C(=O)c1cc2cccnn2c1-c1cccc(C(=O)Nc2ccccc2)c1` it was 25 µM (≈ 10.7 µg/mL); in that of `CCN(CCO)C(=O)c1nc2cccnc2n1-c1cccc(C(F)(F)F)c1`, 24 µM (≈ 9.08 µg/mL); in that of `CCN(CCO)C(=O)c1cc2cc(OC)cnn2c1-c1cccc(C(F)(F)F)c1`, 25 µM (≈ 10.2 µg/mL). In the case of `CCN(CCO)C(=O)c1nc2ccccn2c1-c1cccc(C(F)(F)F)c1`, the solubility at 4 h in data set [2] amounted to 270 µM (≈ 102 µg/mL).

`CCN(Cc1ccn[nH]1)C(=O)c1cc2cccnn2c1-c1cccc(C(F)(F)F)c1` yielded a solubility at 4 h in data set [2] of 150 µM (≈ 62 µg/mL). On the same count and under the same terms, in the case of `CCN(CCO)C(=O)c1cc2ccccn2c1-c1cccc(C(F)(F)F)n1` it was 360 µM (≈ 136 µg/mL).

Turning to `CCN(CCO)C(=O)c1cc2cccnn2c1-c1cccc(OC)c1`, the solubility at 4 h in data set [2] is 340 µM (≈ 115 µg/mL). Still for that read-out and setting: in the case of `N#Cc1cccc(-c2c(C(=O)N3CCCCC3CO)cc3ccccn23)c1` (stereo unspecified) it was 250 µM (≈ 89.9 µg/mL); in that of `CCN(CCO)C(=O)c1cc2ccccn2c1-c1cccc(C)c1`, 260 µM (≈ 83.8 µg/mL); in that of `CCN(CCO)C(=O)c1cc2ccncn2c1-c1cccc(C(F)(F)F)c1`, 240 µM (≈ 90.6 µg/mL). Same read-out and setting: in the case of `COc1ccc(-c2c(C(=O)N3CCC[C@H]3CO)cc3cccnn23)cc1` it was over 400 µM. For the compound `COc1cccc(-c2c(C(=O)N3CCCCC3CO)cc3ccccn23)c1` (stereo unspecified), the Papp A→B in data set [1] was 58 ×10⁻⁶ cm/s. The same compound came in with a solubility at 4 h in data set [2] of 260 µM (≈ 94.8 µg/mL).

As for `CCN(CCO)C(=O)c1cc2cccnn2c1-c1cccc(C(F)(F)F)c1`, the Papp A→B in data set [1] stood at 42 ×10⁻⁶ cm/s. The compound also displayed a solubility at 4 h in data set [2] of 200 µM (≈ 75.5 µg/mL). In data set [2], `CCN(CCO)C(=O)c1cc2cc(C)cnn2c1-c1cccc(C(F)(F)F)c1` yielded a solubility at 4 h of 190 µM (≈ 74.4 µg/mL). For `CCCN(CCO)C(=O)c1cc2ccccn2c1-c1ccccc1`, the Papp A→B in data set [1] was 60 ×10⁻⁶ cm/s. For the same compound, the solubility at 4 h in data set [2] was determined as 280 µM (≈ 90.3 µg/mL). In data set [2], `CCN(CCO)C(=O)c1cc2ccc(C)nn2c1-c1cccc(C(F)(F)F)c1` displayed a solubility at 4 h of 28 µM (≈ 11 µg/mL). On the same count and under the same terms, in the case of `CCN(CCO)C(=O)c1cc2cccnc2n1-c1cccc(C(F)(F)F)c1` it was over 300 µM; in that of `CCN(CCO)C(=O)c1cc2cccnn2c1Cc1cccc(C(F)(F)F)c1`, 170 µM (≈ 66.5 µg/mL). Take `CCN(CCO)C(=O)c1cc2ccccn2c1-c1cccc(OC)c1`: the Papp A→B in data set [1] amounted to 54 ×10⁻⁶ cm/s. Moreover, the concentration in solution in data set [2] (solubility at 4 h) was 150 µM (≈ 50.8 µg/mL).

In the case of `CCN(CCO)C(=O)c1oc2cccnc2c1-c1cccc(C(F)(F)F)c1`, the solubility at 4 h in data set [2] is over 400 µM.

For the compound `CCN(CCO)C(=O)c1cc2cccnn2c1-c1cccc(C)c1`, the concentration in solution in data set [2] (solubility at 4 h) was 330 µM (≈ 107 µg/mL). Same read-out and setting: the result for `O=C(c1cc2cccnn2c1-c1cccc(C(F)(F)F)c1)N1CCC[C@H]1CO` reads 360 µM (≈ 140 µg/mL); that for `O=C(Cc1cc2cccnn2c1-c1cccc(C(F)(F)F)c1)N1CCC[C@@H]1CO`, 220 µM (≈ 88.7 µg/mL). On the same count and under the same terms, in the case of `CCN(CCO)C(=O)c1cc2cccnn2c1-c1ccc(C(F)(F)F)cc1` it was 22 µM (≈ 8.3 µg/mL).
